Columns and labels:
14-3-3σ/ERα [1] = biological target: T1, 14-3-3σ/ERα (Homo sapiens, UniProt P03372+P31947); test: Mass spectrometry dose response, compound binding to 14-3-3σ in the presence of ERα phosphopeptide; details: 100 nM compound, 100 nM 14-3-3σ, ERα-peptide 2 µM
T1 construct: The 14-3-3 σ isoform (full-length for mass spectrometry and fluorescence anisotropy assays, ΔC for crystallography); made in house; host or cells: E. coli Rosetta 2(DE3)pLysS, pPROEX HTb vector
Description: (§1) Two orthogonal assays were developed for screening. For the primary assay, mass spectrometry (MS) was used to monitor the formation of the covalent bond between the compound and the native cysteine (Cys38 on 14-3-3σ) (Figure 1D). The assay was first performed in the absence of peptide to determine binding to 14-3-3σ only (apo screening, D1) and then in the presence of both 14-3-3σ and the peptide as an indication of how much the peptide stabilized compound binding (D2). […] As a secondary assay, fluorescence anisotropy (FA) was used. In this case, compounds were titrated to mixtures of 14-3-3σ and FAM-labeled peptides. […] Thus, the two assays are highly complementary; the MS assay reports on compound binding and the FA assay reports on peptide binding. […]
(§2) Mass spectrometry dose response assays were performed on a Waters Acquity UPLC/ Xevo G2-XS Q-Tof mass spectrometer. A Waters UPLC Protein BEH-C4 Column (300 Å, 1.7 μm, 2.1 mm x 50 mm) was used to desalt the samples prior to application on the mass spectrometer. For 19-point MS dose responses, 50 mM compound stocks in DMSO were serially diluted in 3-fold increment in a master plate, then 1000 nl of the compounds were transferred in the assay plates. Master mixes containing 100 nM full-length wild type 14-3-3σ in the absence or presence of […]
(§3) Assay buffer was TRIS (10 mM, pH 8.0) and final volume per well was 50 μl, with final top concentration of compounds dose response series at 1 mM. The reaction mixtures were incubated for 1h at rt before subjected to MS. Four measurements (1h, 8h, 16h, 24h) were performed for time-course experiments. The injection volume for each sample was 6 μl. 24 μl of sample were needed for the time-course experiments, so the total volume in the assay plate was adjusted to 50 μl, to account for the dead volume in the injections. Data collection and automated processing followed a custom workflow, as previously described.1 z Plots were created using GraphPad Prism with the log(agonist) vs. response (variable slope, four parameters) fitting model. […]

14-3-3σ = biological target: T2, 14-3-3σ (Homo sapiens, UniProt P31947); test: Mass spectrometry dose response, compound binding to 14-3-3σ in the absence of peptide (apo); details: 100 nM compound, 100 nM 14-3-3σ
T2 construct: The 14-3-3 σ isoform (full-length for mass spectrometry and fluorescence anisotropy assays, ΔC for crystallography); made in house; host or cells: E. coli Rosetta 2(DE3)pLysS, pPROEX HTb vector
T2 sequence (P31947 1-248): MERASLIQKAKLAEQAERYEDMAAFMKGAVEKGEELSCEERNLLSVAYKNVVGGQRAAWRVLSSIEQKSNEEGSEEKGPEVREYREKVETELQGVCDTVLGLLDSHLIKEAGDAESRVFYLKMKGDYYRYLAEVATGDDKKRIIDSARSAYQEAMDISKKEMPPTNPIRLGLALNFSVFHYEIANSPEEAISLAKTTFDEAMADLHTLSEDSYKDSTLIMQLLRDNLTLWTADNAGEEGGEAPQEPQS
Description: as §1, §2, §3

14-3-3σ/ERα [2] = biological target: T1, 14-3-3σ/ERα; test: Fluorescence anisotropy compound titration, FAM-labeled ERα peptide; type: binding; details: 10 nM ERα-FAM labeled peptide, 1 µM 14-3-3σ, overnight incubation (24 h); read-out: EC50 value ERα (FA compound titration)
Description: as §1
diluted in buffer (10 mM HEPES, pH 7.5, 150 mM NaCl, 0.1% Tween20, 1 mg/mL Bovine Serum Albumin (BSA; Sigma-Aldrich). Final DMSO in the assay was always 1%. Dilution series of 14-3-3 proteins or compounds were made in […]
Compound titrations were made by titrating the compound in a 2-fold dilution series (starting at 500 or 1000 µM) to a mix of fluorescein-labeled peptide (10 nM) and 14-3-3σ (concentration at approximately the EC20 to EC30 value of the protein-peptide complex; 1 µM for ERα and 5 µM for C-RAF). Using the ~EC25 value makes the assay sensitive for measuring an increase in PPI formation. Fluorescence anisotropy measurements were performed directly and after overnight incubation at room temperature. […]
Wells containing only FAM-peptide were used to set as G-factor at 35 mP. Data reported are at endpoint. EC50 and apparent Kd values were obtained from fitting the data with a four-parameter logistic model (4PL) in GraphPad Prism 7 for Windows. Data was obtained and averaged based on either three (compound titrations) or two (protein titrations) independent experiments.

14-3-3σ/C-RAF = biological target: T3, 14-3-3σ/C-RAF (Homo sapiens, UniProt P31947); test: Mass spectrometry dose response, compound binding to 14-3-3σ in the presence of C-RAF phosphopeptide; details: 100 nM compound, 100 nM 14-3-3σ, C-RAF peptide 18 µM
T3 construct: The 14-3-3 σ isoform (full-length for mass spectrometry and fluorescence anisotropy assays, ΔC for crystallography); made in house; host or cells: E. coli Rosetta 2(DE3)pLysS, pPROEX HTb vector
T3 sequence (P31947 1-248): T2 sequence (P31947 1-248)
Description: as §1, §2, §3

Structure (SMILES)	Percentage (%) bound of compound to 14-3-3σ, ERα 1h (14-3-3σ/ERα [1]) [%]	Percentage (%) bound of compound to 14-3-3σ, ERα 8h (14-3-3σ/ERα [1]) [%]	Percentage (%) bound of compound to 14-3-3σ, ERα 16h (14-3-3σ/ERα [1]) [%]	Percentage (%) bound of compound to 14-3-3σ, ERα 24h (14-3-3σ/ERα [1]) [%]	Percentage (%) bound of compound to 14-3-3σ, APO 1h (14-3-3σ) [%]	Percentage (%) bound of compound to 14-3-3σ, APO 8h (14-3-3σ) [%]	Percentage (%) bound of compound to 14-3-3σ, APO 16h (14-3-3σ) [%]	Percentage (%) bound of compound to 14-3-3σ, APO 24h (14-3-3σ) [%]	EC50 (14-3-3σ/ERα [2]) [µM]	Percentage (%) bound of compound to 14-3-3σ, CRAF 1h (14-3-3σ/C-RAF) [%]	Percentage (%) bound of compound to 14-3-3σ, CRAF 8h (14-3-3σ/C-RAF) [%]	Percentage (%) bound of compound to 14-3-3σ, CRAF 24h (14-3-3σ/C-RAF; 24h) [%]	Percentage (%) bound of compound to 14-3-3σ, CRAF 24h (14-3-3σ/C-RAF; head prints 24h) [%]
Cl.O=C(CCl)NCC1CCN(C(=O)C2(Nc3ccccc3)CCNCC2)CC1 [compound 133]	4.5	12.9	26.7	47.0	0.7	1.1	1.2	10.3	115	0	1.0	1.1	1.1
Cl.NC1CCC(Oc2ccccc2)(C(=O)N2CCC(CNC(=O)CCl)CC2)CC1 (centres unmarked) [compound 139]	0	0	0	1.0	0	0	2.0	2.0	> 150	0	0	1.0	0

Further lines, results first:

Percentage (%) bound of compound to 14-3-3σ, ERα 1h (14-3-3σ/ERα [1]) [%]	Percentage (%) bound of compound to 14-3-3σ, ERα 8h (14-3-3σ/ERα [1]) [%]	Percentage (%) bound of compound to 14-3-3σ, ERα 16h (14-3-3σ/ERα [1]) [%]	Percentage (%) bound of compound to 14-3-3σ, ERα 24h (14-3-3σ/ERα [1]) [%]	Percentage (%) bound of compound to 14-3-3σ, APO 1h (14-3-3σ) [%]	Percentage (%) bound of compound to 14-3-3σ, APO 8h (14-3-3σ) [%]	Percentage (%) bound of compound to 14-3-3σ, APO 16h (14-3-3σ) [%]	Percentage (%) bound of compound to 14-3-3σ, APO 24h (14-3-3σ) [%]	EC50 (14-3-3σ/ERα [2]) [µM]	Percentage (%) bound of compound to 14-3-3σ, CRAF 1h (14-3-3σ/C-RAF) [%]	Percentage (%) bound of compound to 14-3-3σ, CRAF 8h (14-3-3σ/C-RAF) [%]	Percentage (%) bound of compound to 14-3-3σ, CRAF 24h (14-3-3σ/C-RAF; 24h) [%]	Percentage (%) bound of compound to 14-3-3σ, CRAF 24h (14-3-3σ/C-RAF; head prints 24h) [%]	Structure (SMILES)
1.0	10.2	83.3	89.9	0	0	0.8	25.6	> 150	1.0	2.9	22.1	16.3	Cl.NC1CCC(Nc2ccccc2)(C(=O)N2CCC(CNC(=O)CCl)CC2)CC1 (centres unmarked) [compound 141]
0	0	1.0	1.1	0	0	0	0	92 ± 8	0	0	0	0	O=C(CCl)NCCC1CCN(C(=O)C2(Nc3ccc(Cl)cc3)CCOCC2)CC1 [compound 148]
6.5	20.6	48.0	75.0	0	0	1.8	2.2	16 ± 2	0	1.0	3.7	1.5	O=C(CCl)NCCC1CCN(C(=O)C2(Nc3ccc(Cl)cc3)CCNCC2)CC1 [compound 151]

Reference: article PMC10515640, “Structure-Based Optimization of Covalent, Small-Molecule Stabilizers of the 14-3-3σ/ERα Protein–Protein Interaction from Nonselective Fragments” (Journal of the American Chemical Society, 2023)
